Test [1] concerns the target T1, human α2a-AR (Homo sapiens, UniProt P08913).
T1 construct: expressed in transfected cells
T1 sequence (P08913 1-465): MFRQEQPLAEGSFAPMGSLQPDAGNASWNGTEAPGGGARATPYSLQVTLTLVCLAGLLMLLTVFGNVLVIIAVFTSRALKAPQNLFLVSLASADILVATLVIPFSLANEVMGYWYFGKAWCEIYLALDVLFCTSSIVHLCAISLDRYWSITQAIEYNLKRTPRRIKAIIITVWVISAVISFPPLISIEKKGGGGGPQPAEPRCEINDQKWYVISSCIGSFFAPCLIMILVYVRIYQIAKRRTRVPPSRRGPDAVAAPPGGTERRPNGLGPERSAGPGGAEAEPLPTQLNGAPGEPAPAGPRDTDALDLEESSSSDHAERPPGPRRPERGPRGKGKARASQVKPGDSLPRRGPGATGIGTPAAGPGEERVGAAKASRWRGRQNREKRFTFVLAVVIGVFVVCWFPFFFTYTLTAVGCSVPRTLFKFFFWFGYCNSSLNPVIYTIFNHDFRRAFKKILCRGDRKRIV
Nature of the test: [3H]Rauwolscine equilibrium competition binding, human α2a-AR expressed in CHO cells. Conditions: for Ki: human α2a-AR in CHO cells; for α2a/α2b Selectivity = Ki(α2b)/Ki(α2a): Table 1, ratio of Ki values.

For test [2], the target named is T2, human α2b-AR (Homo sapiens, UniProt P18089).
T2 construct: expressed in transfected cells
T2 sequence (P18089 1-450): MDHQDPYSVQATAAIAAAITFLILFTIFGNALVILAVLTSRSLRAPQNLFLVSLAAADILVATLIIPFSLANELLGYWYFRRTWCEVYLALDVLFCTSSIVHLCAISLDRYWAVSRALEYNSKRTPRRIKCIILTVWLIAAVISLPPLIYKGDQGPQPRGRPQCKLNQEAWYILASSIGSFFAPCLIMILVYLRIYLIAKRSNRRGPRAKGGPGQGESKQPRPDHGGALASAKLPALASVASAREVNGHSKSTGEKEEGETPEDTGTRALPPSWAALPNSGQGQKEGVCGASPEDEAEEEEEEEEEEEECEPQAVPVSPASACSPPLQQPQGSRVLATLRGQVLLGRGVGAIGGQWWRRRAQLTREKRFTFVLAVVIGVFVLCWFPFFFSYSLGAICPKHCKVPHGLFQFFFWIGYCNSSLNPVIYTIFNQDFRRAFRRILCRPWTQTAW
Nature of the test: [3H]Rauwolscine equilibrium competition binding, human α2b-AR expressed in CHO cells.

Test [3] has as its target T3, human α2c-AR (Homo sapiens, UniProt P18825).
T3 construct: expressed in transfected cells
T3 sequence (P18825 1-462): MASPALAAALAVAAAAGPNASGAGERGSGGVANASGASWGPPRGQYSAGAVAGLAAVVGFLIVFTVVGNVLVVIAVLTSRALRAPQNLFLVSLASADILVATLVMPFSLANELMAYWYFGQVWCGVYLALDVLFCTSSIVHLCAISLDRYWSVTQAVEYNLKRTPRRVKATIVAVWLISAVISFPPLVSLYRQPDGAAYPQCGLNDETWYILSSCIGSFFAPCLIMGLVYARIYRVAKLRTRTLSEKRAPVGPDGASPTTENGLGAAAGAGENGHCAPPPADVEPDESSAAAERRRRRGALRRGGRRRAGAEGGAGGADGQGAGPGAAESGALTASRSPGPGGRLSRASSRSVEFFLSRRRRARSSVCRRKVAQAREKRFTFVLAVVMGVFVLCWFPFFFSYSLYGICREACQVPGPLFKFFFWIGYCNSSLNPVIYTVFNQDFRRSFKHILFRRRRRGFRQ
Nature of the test: [3H]Rauwolscine equilibrium competition binding, human α2c-AR expressed in CHO cells.

Test [4] deals with cremaster muscle arterioles (A3-A4 resistance vessels). The test can be described thus: Intravital microscopy of mouse cremaster muscle arterioles. The test is classed as in vivo, male C57-BL mice. The following applies: 37° C., systemic administration via femoral vein, n=6. The method, then: Male C57-BL mice age 7-8 weeks and weighing approximately 20 g were used for the study. Prior to surgery animals were anesthetized with an i.m. injection of […] of Ketaset (87 mg ketamine/mL+13 mg xylazine/mL). Body temperature was maintained at ˜37° C. by convective heating. The animal was supinated and a midline incision was made in the ventro-cervical region and the underlying tissues bisected laterally to expose the trachea. A tracheotomy was performed and the animal intubated directly with PE50 tubing to facilitate ventilation, and the wound closed. The left rear limb was incised to expose the femoral neurovascular bundle, and the femoral vein isolated and catheterized with PE10 tubing attached to a syringe of normal saline. […]. […]
All experiments were carried out using an industrial grade microscope (Nikon MM-11) with two light sources, bright field (Opti-Quip 75 W xenon) and fluorescent (Nikon 150 W mercury). […] Experiments are viewed on a video monitor and recorded on digital tapes for off-line processing. The video images are analyzed off-line using the MetaMorph software (Universal Imaging Co.) on a Dell Optiplex GX-1. […]
The prepared animal was placed on the stage of the microscope on either the surgery board with the translumination window or on a stereotaxic frame. […] The blood pressure was monitored with a Kent Scientific XBP-1000 unit.

Setting [5] is: Table 2, mean ± SEM of n = 4-6, read-out: pKi α2a-AR (converted).
Setting [6] is: [3H]rauwolscine 2.54 nM, mean ± SEM of four to nine experiments, read-out: Ki = SEM (nM) α2a-AR.
Setting [7] is: Table 2, mean ± SEM of n = 4-6, read-out: pKi α2b-AR (converted).
Where [8] appears, read: [3H]rauwolscine 2.54 nM, mean ± SEM of four to nine experiments, read-out: Ki = SEM (nM) α2b-AR.

Each structure is given as a SMILES string. Where two headings read alike, the source gives them in different places.

As to `O=C(NCCNC(=O)[C@@H]1[C@H]2C[C@H]3c4[nH]c5ccccc5c4CCN3C[C@@H]2CC[C@@H]1O)[C@@H]1[C@H]2C[C@H]3c4[nH]c5ccccc5c4CCN3C[C@@H]2CC[C@@H]1O` [Compound 3a], the Ki is 93.3 nM in test [1] (setting [5]); 26.4 ± 7.3 nM in test [1] (setting [6]); 3160 nM in test [2] (setting [7]); 1510 ± 262 nM in test [2] (setting [8]); 0.00355 µM in test [3].
The like results for `O=C(NCCCCNC(=O)[C@@H]1[C@H]2C[C@H]3c4[nH]c5ccccc5c4CCN3C[C@@H]2CC[C@@H]1O)[C@@H]1[C@H]2C[C@H]3c4[nH]c5ccccc5c4CCN3C[C@@H]2CC[C@@H]1O` [Compound 3c] were, in that order, 53.7 nM, 15.3 ± 6.2 nM, 398 nM, 189 ± 38.1 nM and 0.00832 µM.
`O=C(NCCCCCNC(=O)[C@@H]1[C@H]2C[C@H]3c4[nH]c5ccccc5c4CCN3C[C@@H]2CC[C@@H]1O)[C@@H]1[C@H]2C[C@H]3c4[nH]c5ccccc5c4CCN3C[C@@H]2CC[C@@H]1O` [Compound 3d]: the Ki was 6.17 nM in test [1] (setting [5]), 1.73 ± 0.26 nM in test [1] (setting [6]) and 0.0107 µM in test [3].
On to `O=C(NCCCCCCNC(=O)[C@@H]1[C@H]2C[C@H]3c4[nH]c5ccccc5c4CCN3C[C@@H]2CC[C@@H]1O)[C@@H]1[C@H]2C[C@H]3c4[nH]c5ccccc5c4CCN3C[C@@H]2CC[C@@H]1O` [Compound 3e], for which the Ki in test [1] (setting [5]) was 4.47 nM; in test [1] (setting [6]), 1.35 ± 0.27 nM; in test [2] (setting [7]), 288 nM; in test [2] (setting [8]), 166 ± 56.7 nM; in test [3], 0.00692 µM.
Regarding `O=C(NCCCCCCCNC(=O)[C@@H]1[C@H]2C[C@H]3c4[nH]c5ccccc5c4CCN3C[C@@H]2CC[C@@H]1O)[C@@H]1[C@H]2C[C@H]3c4[nH]c5ccccc5c4CCN3C[C@@H]2CC[C@@H]1O` [Compound 3f], the results for the Ki in test [1] (setting [5]), in test [1] (setting [6]) and in test [3] were 3.09 nM, 0.87 ± 0.18 nM and 0.00339 µM, respectively.
As for `O=C(NCCCCCCCCNC(=O)[C@@H]1[C@H]2C[C@H]3c4[nH]c5ccccc5c4CCN3C[C@@H]2CC[C@@H]1O)[C@@H]1[C@H]2C[C@H]3c4[nH]c5ccccc5c4CCN3C[C@@H]2CC[C@@H]1O` [Compound 3g], the “α2a/α2b Selectivity = Ki(α2b)/Ki(α2a)” value in test [1] worked out at 60.5. Besides, the Ki in test [1] (setting [6]) was found to be 0.76 ± 0.12 nM; in test [2] (setting [8]), 46 ± 7.6 nM.
The like results for `O=C(NCCCCCCCCCCNC(=O)[C@@H]1[C@H]2C[C@H]3c4[nH]c5ccccc5c4CCN3C[C@@H]2CC[C@@H]1O)[C@@H]1[C@H]2C[C@H]3c4[nH]c5ccccc5c4CCN3C[C@@H]2CC[C@@H]1O` [Compound 3i] were, in that order, 47.7, 0.39 ± 0.08 nM and 18.6 ± 1.6 nM.
`COC(=O)[C@@H]1[C@H]2C[C@H]3c4[nH]c5ccccc5c4CCN3C[C@@H]2CC[C@@H]1O` [Yohimbine, reference compound]: the “binding affinity for α2c-AR greater than on the α1-AR subtypes” value in test [3] (from Table 3) was “at least 4400 fold”. The “increase in vessel diameter” value in test [4] is 22.14±1.08%.

These data come from US6638943B2 (The University of Tennessee Research Foundation, priority 2001, dated 2003).
